From article doi:10.1101/2023.06.30.547126, “FruitFire: a luciferase based on a fruit fly metabolic enzyme” (bioRxiv, 2023)

Legend:
[1] = target: T1, CG6178 (Drosophila melanogaster, UniProt Q9VCC6); experiment: X-ray crystal structure, […] Å; assay type: binding; conditions: active site; co-purified fatty acid adenylated with 10 mM ATP, ligand modelled as best fit to density; pH 7.5, 25 °C
T1 construct: gene Dmel\CG6178; full length, 544 residues; GST fusion from pGEX-6P-1 in E. coli BL21(DE3), GST cleaved with PreScission protease
T1 sequence (Q9VCC6 1-544): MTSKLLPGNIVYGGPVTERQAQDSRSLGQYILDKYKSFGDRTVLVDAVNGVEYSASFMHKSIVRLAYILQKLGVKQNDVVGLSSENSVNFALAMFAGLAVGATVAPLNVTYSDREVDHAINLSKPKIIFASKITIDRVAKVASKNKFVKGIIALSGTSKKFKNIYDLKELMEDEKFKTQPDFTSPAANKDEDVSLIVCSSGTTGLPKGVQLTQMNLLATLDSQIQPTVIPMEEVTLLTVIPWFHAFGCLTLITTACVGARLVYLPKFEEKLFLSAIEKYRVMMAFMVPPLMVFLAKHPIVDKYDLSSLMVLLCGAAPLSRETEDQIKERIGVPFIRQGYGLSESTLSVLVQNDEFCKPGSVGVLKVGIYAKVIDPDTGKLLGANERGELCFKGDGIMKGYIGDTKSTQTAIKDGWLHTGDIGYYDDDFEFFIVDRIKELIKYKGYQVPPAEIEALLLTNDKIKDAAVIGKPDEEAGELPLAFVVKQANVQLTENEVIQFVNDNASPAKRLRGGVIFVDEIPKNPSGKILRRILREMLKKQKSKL

[2] = target: T2, Fluc (Photinus pyralis, UniProt P08659); experiment: live-cell bioluminescence imaging (IVIS-100); assay type: cell-based; conditions: transfected CHO cells, 0.122-250 μM substrate
T2 construct: luc2 gene in pcDNA3.1, transfected CHO cells
T2 sequence (P08659 whole entry): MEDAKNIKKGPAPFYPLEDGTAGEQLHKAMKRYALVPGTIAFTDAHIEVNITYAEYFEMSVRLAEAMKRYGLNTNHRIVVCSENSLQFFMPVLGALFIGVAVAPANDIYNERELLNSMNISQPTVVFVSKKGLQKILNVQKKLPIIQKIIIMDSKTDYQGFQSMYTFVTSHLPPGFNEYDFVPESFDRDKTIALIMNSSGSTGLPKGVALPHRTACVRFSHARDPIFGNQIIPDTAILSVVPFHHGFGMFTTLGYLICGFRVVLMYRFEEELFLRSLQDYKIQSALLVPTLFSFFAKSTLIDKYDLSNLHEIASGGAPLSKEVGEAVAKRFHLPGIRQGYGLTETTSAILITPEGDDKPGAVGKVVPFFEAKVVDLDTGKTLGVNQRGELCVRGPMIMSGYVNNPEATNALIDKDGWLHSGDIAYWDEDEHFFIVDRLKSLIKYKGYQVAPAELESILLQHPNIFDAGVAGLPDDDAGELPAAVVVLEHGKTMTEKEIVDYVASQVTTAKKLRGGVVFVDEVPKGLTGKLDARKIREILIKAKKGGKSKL

Row | Structure (SMILES) | X-ray crystal structure, 2.5 Å [1] | live-cell bioluminescence imaging (IVIS-100) [2]
1 | CCCCCCCC(=O)OP(=O)(O)OC[C@H]1O[C@@H](n2cnc3c(N)ncnc32)[C@H](O)[C@@H]1O [octanoyl-AMP] | octanoyl-AMP (C8) and an ethylene glycol in the active site is most consistent with the data | 
2 | CN1CCc2cc3nc(C4=N[C@@H](C(=O)O)CS4)sc3cc21 [CycLuc2] |  | relative performance of all three enzymes with CycLuc2
